How the values were obtained:
[1] = Regulatory acceptable intake (AI) limits for nitrosamine impurities; set-up: species or system human; conditions: determined in view of the EMA limit
Method: FDA recommends the following acceptable intake (Al) limits fir the nitrosamine impurities a s given in the below table:
The conversion of Al limit into ppm varies by product and is calculated based on a drug's maximum daily dose (MDD) as reflected in the drug label (ppm=Al (ng)/MDD(mg)).
These limits are applicable only if a drug product contains a single nitrosamine.
Apart from NDMA there is another nitrosamine impurity, N-nitroso-varenicline which is usually found in APIs as well as finished product of varenicline. As per the recent update, USFDA has provided acceptable intake limit of N-nitroso-varenicline (VC09) from 37 ng/day to 185 ng/day, in finished product of varenicline.
Additionally, European Medicines Agency (EMA) has also provided the daily acceptable intake limit for N-nitroso-varenicline impurity as 18 ng/day. In view of the above limit minimum daily intake limit for VC09 was determined as 9 ppm.

[2] = cited from earlier work; for AI Limit: FDA recommended acceptable intake limit in drug products
[3] = Analysis of nitrosamine impurities (VC09, NDEA) in drug substance, blends and tablets; assay type: physicochemical; conditions: Table 2

Molecule | AI Limit [2] | other results
O=NN1CC2CC(C1)c1cc3nccnc3cc12 [N-nitroso-varenicline] |  | minimum daily intake limit [1]: 9 ppm; daily acceptable intake limit ([2]; European Medicines Agency (EMA)): 18 ng/day
CCN(CC)N=O [NDEA, N-nitrosodiethylamine] | 26.5 ng/day | 
CC(C)N(N=O)C(C)C [NDIPA, N-nitrosodiisopropylamine] | 26.5 ng/day | 
CN(C)N=O [NDMA, N-nitrosodimethylamine] | 96 ng/day | 
CCN(N=O)C(C)C [NIPEA, N-nitrosoisopropylethyl amine] | 26.5 ng/day | 
CN(CCCC(=O)O)N=O [NMBA, N-nitroso-N-methyl-4-aminobutanoic acid] | 96 ng/day | 
Varenicline Tartrate [Drug Substance] |  | Nitrosamines Results in ppm, VC09 ([3]; 40/75, 7 days, open): 0.20 ppm; Nitrosamines Results in ppm, VC09 ([3]; 60° C, 7 days, open): 0.27 ppm; Nitrosamines Results in ppm, VC09 ([3]; Initial (Chantix tablets: condition not given)): 0.23 ppm
